Results on one compound are retold here after PubChem BioAssay (NCI).

Experiment [1] concerns P388 leukemia. The experiment can be described thus: NCI tumour cell line growth inhibition, 48 h.
The subject of experiment [2] is P388/ADR leukemia. The experiment can be described thus: NCI tumour cell line growth inhibition, 48 h.

The structures appear in SMILES notation.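 Exposure lasted 48 hours, with cells grown in 96-well plates and compounds tested at five concentrations. Abbreviation: GI50, concentration required for 50% inhibition of growth. TGI: total growth inhibition.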 Where only a bound is given, the exact number is not on record here.

As to `O=C(O)c1ccc(C(=O)O)c(C(=O)O)c1.[NH-]C1CCCCC1[NH-].[Pt+2]`, the GI50 was 262 nM in experiment [1] and 2150 nM in experiment [2]. Also, the TGI in experiment [1] was 14600 nM; in experiment [2] it was greater than 100000 nM.
